From patent US9476053B2, “Methods and compositions for inhibition of immune responses and autoimmunity” (Dynavax Technologies Corporation, priority 2007, dated 2016) come the findings set out here.

One series concerns PDC. Kind of series: In vivo cell survival after escalating dose of Dexthametasone in 129 mice. More on the design: species or system mouse. The settings on record: 0.5 mg-4 mg, 16 hours, spleen and blood. The method, then:
To investigate whether PDC are sensitive to glucorticoid induced death in vivo, 129 mice were treated with escalating dose of Dexthametasone (0.5 mg-4 mg) and after 16 hours spleen and blood was harvest. Cell survival was measured by flow cytometry. The number of viable cells was evaluated by flow cytometry by comparing to a fixed amount of microbeads that was added in equal amount in all samples prior to the measure on the flow cytometry.
Specific markers were used to identify specific subsets. Cells were identified to be PDC by the surface presence of B220, CD11c, and PDCA1 marker. Myeloid dendritic cells were identified as to be CD11c positive and B220 negative. B-cells were identified as B220 positive cells and CD11c negative. Monocytes were identified as CD11b positive. Cell viability using cells from spleen tissue under increasing Dexthametason dose was evaluated and results are shown in FIG. 32. Similar results were obtained using blood (data not shown). PDC were sensitive to glucorticoid induced death in vivo.

The next series concerns the target T1, TLR7 (Mus musculus, UniProt P58681).
T1 construct: The dispersed splenocytes were pelleted by centrifugation, then resuspended in fresh medium; endogenous in cells; host or cells: primary splenocytes of BALB/c mice
T1 sequence (P58681 27-1050): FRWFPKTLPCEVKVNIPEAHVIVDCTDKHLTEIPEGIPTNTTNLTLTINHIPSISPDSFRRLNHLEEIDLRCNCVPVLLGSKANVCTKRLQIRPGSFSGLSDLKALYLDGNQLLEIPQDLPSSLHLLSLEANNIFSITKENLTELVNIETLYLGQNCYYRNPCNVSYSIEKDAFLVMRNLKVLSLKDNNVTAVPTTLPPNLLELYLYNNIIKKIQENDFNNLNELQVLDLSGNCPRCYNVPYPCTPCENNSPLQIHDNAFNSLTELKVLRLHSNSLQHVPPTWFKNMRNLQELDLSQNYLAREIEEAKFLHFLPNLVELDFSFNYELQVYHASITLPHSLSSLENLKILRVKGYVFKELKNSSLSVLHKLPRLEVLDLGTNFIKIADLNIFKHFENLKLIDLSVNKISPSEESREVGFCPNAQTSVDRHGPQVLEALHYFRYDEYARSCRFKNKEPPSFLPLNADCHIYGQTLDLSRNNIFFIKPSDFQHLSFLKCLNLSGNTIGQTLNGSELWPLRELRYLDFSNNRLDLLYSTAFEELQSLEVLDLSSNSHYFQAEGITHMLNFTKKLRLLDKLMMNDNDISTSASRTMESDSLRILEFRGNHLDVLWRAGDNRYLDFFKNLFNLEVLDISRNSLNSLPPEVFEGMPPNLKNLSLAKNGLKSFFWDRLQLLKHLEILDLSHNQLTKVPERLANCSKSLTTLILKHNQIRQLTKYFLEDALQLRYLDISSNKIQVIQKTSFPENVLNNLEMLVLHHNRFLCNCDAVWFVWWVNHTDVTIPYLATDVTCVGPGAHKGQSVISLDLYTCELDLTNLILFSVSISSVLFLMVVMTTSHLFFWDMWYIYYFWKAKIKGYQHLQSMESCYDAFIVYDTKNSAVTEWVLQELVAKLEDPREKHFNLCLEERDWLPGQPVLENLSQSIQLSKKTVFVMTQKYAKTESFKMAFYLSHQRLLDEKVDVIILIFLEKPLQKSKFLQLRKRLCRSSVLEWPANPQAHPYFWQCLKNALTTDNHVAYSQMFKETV
The series is described as follows: Mouse splenocytes stimulated with R848 (TLR7 ligand), IL-6 by immunoassay. It is filed as cell-based. The protocol:
(§1) Modified and unmodified immunoregulatory polynucleotides (IRPs) (i.e., polynucleotides containing at least one modified or unmodified IRS) or control samples were assayed for immunoregulatory (IR) activity of innate immune responses on human and mouse cells.
(§2) For mouse cell assays, spleens from 6-12 week-old BALB/c mice spleen were harvested and mechanically dispersed by forcing the digested fragments through metal screens. The dispersed splenocytes were pelleted by centrifugation, then resuspended in fresh medium (RPMI 1640 with 10% fetal calf serum, plus 50 units/mL penicillin, 50 μg/mL streptomycin, 2 mM glutamine, and 0.05 mM β-mercaptoethanol). In a dose-dependent manner, the cells were then stimulated with […] of 1018 ISS (TLR9 ligand; 5′-[…]-3′ (SEQ ID NO:122)) or 1 μM of R848 (TLR7 ligand; a small molecule, an imidazoquinoline also called resiquimod) either alone or in the presence of the tested IRPs. At 48 hours, supernatants were collected and cytokine levels, IL-6, were measured using immunoassays. […]

The target in series [1] is T2, TLR9 (Mus musculus, UniProt Q9EQU3).
T2 construct: The dispersed splenocytes were pelleted by centrifugation, then resuspended in fresh medium; endogenous in cells; host or cells: primary splenocytes of BALB/c mice
T2 sequence (Q9EQU3 26-1032): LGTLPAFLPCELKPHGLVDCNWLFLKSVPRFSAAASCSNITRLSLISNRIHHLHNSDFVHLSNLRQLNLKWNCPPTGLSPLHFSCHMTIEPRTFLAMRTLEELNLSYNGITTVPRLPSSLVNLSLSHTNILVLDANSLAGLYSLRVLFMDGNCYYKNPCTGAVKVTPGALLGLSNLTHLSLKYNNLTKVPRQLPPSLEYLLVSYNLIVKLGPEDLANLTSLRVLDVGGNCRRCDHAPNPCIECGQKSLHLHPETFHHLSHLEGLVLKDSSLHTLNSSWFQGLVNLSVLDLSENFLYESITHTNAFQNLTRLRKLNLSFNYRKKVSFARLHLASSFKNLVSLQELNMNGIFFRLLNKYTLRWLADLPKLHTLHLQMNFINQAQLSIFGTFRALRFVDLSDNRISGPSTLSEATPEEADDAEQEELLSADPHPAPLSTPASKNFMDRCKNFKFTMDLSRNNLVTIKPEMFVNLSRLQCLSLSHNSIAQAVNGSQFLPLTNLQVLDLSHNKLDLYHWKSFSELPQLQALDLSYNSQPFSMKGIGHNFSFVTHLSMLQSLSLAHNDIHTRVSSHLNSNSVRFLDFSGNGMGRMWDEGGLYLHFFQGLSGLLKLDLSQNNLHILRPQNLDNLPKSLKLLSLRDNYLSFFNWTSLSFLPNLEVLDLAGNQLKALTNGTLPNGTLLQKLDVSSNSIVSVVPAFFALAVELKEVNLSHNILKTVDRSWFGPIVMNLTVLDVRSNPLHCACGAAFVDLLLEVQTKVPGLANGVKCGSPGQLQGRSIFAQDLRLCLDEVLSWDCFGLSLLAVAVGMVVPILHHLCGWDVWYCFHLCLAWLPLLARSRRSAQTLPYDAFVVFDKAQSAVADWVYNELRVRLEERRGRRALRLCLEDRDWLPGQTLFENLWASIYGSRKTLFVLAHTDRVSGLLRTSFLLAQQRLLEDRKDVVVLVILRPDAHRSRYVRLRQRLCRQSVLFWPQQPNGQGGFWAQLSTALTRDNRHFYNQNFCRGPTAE
Kind of series: Mouse splenocytes stimulated with 1018 ISS (TLR9 ligand), IL-6 by immunoassay. It is filed as cell-based. To be noted: TLR9 stimulation (1018 ISS). The protocol:
as §1, §2

For series [2], the target named is T3, TLR9 (Homo sapiens, UniProt Q9NR96).
T3 sequence (Q9NR96 26-1032): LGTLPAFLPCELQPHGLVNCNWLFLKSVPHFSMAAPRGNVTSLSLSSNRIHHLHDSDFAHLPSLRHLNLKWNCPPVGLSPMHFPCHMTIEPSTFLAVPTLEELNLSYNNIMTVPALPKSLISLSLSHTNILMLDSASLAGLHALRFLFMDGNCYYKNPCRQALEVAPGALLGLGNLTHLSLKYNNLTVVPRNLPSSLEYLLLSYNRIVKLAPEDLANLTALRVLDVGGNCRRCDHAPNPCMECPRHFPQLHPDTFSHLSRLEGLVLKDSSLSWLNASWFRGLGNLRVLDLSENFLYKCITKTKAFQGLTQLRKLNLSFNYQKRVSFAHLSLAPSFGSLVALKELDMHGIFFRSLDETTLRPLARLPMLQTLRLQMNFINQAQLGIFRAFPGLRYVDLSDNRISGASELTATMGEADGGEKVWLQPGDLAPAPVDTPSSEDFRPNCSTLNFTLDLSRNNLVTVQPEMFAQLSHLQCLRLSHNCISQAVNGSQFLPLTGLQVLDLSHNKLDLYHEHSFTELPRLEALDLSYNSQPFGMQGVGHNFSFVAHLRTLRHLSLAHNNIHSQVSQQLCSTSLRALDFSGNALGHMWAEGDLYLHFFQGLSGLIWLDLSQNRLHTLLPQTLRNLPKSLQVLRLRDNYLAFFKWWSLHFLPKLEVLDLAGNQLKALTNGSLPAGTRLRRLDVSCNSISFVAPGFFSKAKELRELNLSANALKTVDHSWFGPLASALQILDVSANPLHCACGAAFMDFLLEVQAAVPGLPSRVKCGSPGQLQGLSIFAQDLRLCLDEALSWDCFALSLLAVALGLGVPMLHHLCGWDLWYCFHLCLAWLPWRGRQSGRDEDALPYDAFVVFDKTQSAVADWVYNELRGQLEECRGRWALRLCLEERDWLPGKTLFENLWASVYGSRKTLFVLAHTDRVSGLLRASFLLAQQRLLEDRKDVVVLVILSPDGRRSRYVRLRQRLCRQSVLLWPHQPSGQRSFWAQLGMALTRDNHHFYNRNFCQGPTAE
Kind of series: Human PDC activated with CpG-C ISS C274, IFN-α production, IRS coupled to Ficoll 400. It is filed as cell-based. Also on record: innate immune responses on human plasmacytoid dendritic cells (PDCs); endogenous in cells; host or cells: human plasmacytoid dendritic cells (PDCs). The settings on record: compared with IRS not coupled. An excerpt:
To further investigate whether it is possible to increase IRS activity with respect to inhibition of IFN-α production by aggregating IRS molecule onto a higher order molecule, we have generated molecules that are composed by IRS oligonucleotides that are covalently associated to Ficoll 400, a neutral, highly branched, hydrophilic polymer of sucrose. The nature of this sugar allowed us to link between 10 to over 100 IRS oligos per Ficoll molecule.
The conjugation of oligonucleotides to ficoll as practiced currently consists of four reaction steps: (I) The commercially obtained ficoll is carboxymethylated by reaction of ficoll with chloroacetic acid in base. (II) After neutralization and dialysis, product is reacted with ethylene diamine in the presence of the 1-ethyl-3-[3-(dimethylaminopropyl]carbodiimide) EDC to give product (III). After dialysis Product (III) is reacted with (sulfosuccinimidal 4-[N-maleimidyl]-cyclohexane-1-carboxylate) SMCC to give the ficoll-maleimide product (IV). The thiol-reactive species (IV) is then reacted with the oligonucleotide thiol to give the final product (V), a multioligonucleotide conjugate of ficoll.
Thus, it is possible to increase IRS activity with respect to inhibition of IFN-α production by aggregating IRS molecule onto a higher order molecule.

As to `C[C@@H]1C[C@H]2[C@@H]3CCC4=CC(=O)C=C[C@]4(C)[C@@]3(F)[C@@H](O)C[C@]2(C)[C@@]1(O)C(=O)CO` [Dexthametasone], the “PDC sensitivity to glucorticoid induced death in vivo” value in the series with PDC is given as “sensitive”. With “5′-UGCUCCUGGAGGGG UUGU-3′ (DNA TGCTCCTGGAGGGGTTGT; all LNA, backbone and methylation of C not given here) [SEQ ID NO:161]”, the “IL-6 levels compared to unmodified SEQ ID NO:123” value in the series with TLR7 and in the series with TLR9 [1] was “failed to result in a significant decreased” each time. With “IRS-Ficoll 400: 5′-TGCTCCTGGAGGGGTTGT-3′ (SEQ ID NO:123) coupled to Ficoll 400 (coupled to Ficoll 400, backbone chemistry not given here)”, in the series with TLR9 [2], the “activity for blocking IFN-α production by PDC” value is given as “much increased activity”.
